A short description of data set [1]: Stability in canine liver microsomes. The class given is in vitro ADME. The note with it: canine liver microsomes 0.5 mg protein/mL, 1 μM test substance, β-NADPH 1 mM, 37° C.; for microsomal CLint at 1 μM / half-life at 1 μM: dog; for half-life at 1 μM: read-out: Canine t1/2. A digest of the protocol: (§1)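 Incubations at 37 °C used canine or rat liver microsomes, phosphate buffer containing 3 mM MgCl2, NADPH (no-NADPH controls at 0 and 60 min), and compound from a 10 μM working solution.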
(Microsomes from liver hold many membrane-bound enzymes, among them those of drug oxidation.)

Data set [2] can be described thus: Stability in rat liver microsomes. It is filed as in vitro ADME. The settings on record: rat liver microsomes 0.5 mg protein/mL, 1 μM test substance, β-NADPH 1 mM, 37° C.; for half-life at 1 μM: read-out: Rat t1/2. A digest of the protocol: as §1
The target of data set [3] is T1, hERG potassium ion channel (Homo sapiens, UniProt Q12809).
T1 construct: expressed in transfected cells
The data set is described as follows: Inhibition of hERG potassium ion channel, whole-cell patch clamp in HEK-293 cells. The class given is cell-based. The note with it: HEK-293 cells stably expressing hERG, tail current, room temperature. The method, then: Experimental Example 5: Inhibition of hERG Potassium Ion Channel by Compounds
1.1. An HEK-293 cell line stably expressing the hERG potassium channel was cultured at 37° C. with 5% carbon dioxide in DMEM medium containing 10% fetal bovine serum and 0.8 mg/mL G418. The cell density must not exceed 80%.
1.2. Before patch-clamp testing, cells were dissociated with TrypLE™ Express, and 4×10^3 cells were applied to a coverslip. After 18 h, testing was performed.
2.1. Blank control: DMSO stock solution.
2.2. Positive control: An appropriate amount of cisapride was weighed out and prepared into a 10 mM stock solution using dimethyl sulfoxide (DMSO). The stock solution was aliquoted, and the aliquots were stored at −20° C.
2.3. Compound: An appropriate amount of the compound was weighed out, and the required volume of DMSO was calculated using the formula DMSO volume=actual amount×purity (content)/(molecular weight×theoretical concentration), and measured out using a pipette. The compound that had been weighed out was dissolved in the DMSO that had been measured out using a pipette. Meanwhile, the mass of the DMSO was measured. The actual stock solution concentration was calculated based on the amount of DMSO finally used.
Before hERG channel current testing, the blank control stock solution was diluted with an appropriate amount of extracellular liquid to prepare a working solution. The positive control stock solution and the compound stock solution were diluted with an appropriate amount of extracellular liquid to prepare working solutions. […]
Recording electrodes were prepared from capillary glass tubes using a microelectrode puller. […] Under an inverted microscope, a microelectrode manipulator was used to immerse the electrode in extracellular liquid, and the electrode resistance (Rpip) was recorded. […] Then, slow capacitance compensation was performed, and experimental parameters such as membrane capacitance (Cm) and series resistance (Rs) were recorded. […]

We go through 4 compounds from patent US20260167637A1, “NLRP3 INFLAMMASOME INHIBITOR AND USE THEREOF” (TransThera Sciences (Nanjing), Inc., priority 2022, published 2026).

T1 sequence (Q12809 whole entry): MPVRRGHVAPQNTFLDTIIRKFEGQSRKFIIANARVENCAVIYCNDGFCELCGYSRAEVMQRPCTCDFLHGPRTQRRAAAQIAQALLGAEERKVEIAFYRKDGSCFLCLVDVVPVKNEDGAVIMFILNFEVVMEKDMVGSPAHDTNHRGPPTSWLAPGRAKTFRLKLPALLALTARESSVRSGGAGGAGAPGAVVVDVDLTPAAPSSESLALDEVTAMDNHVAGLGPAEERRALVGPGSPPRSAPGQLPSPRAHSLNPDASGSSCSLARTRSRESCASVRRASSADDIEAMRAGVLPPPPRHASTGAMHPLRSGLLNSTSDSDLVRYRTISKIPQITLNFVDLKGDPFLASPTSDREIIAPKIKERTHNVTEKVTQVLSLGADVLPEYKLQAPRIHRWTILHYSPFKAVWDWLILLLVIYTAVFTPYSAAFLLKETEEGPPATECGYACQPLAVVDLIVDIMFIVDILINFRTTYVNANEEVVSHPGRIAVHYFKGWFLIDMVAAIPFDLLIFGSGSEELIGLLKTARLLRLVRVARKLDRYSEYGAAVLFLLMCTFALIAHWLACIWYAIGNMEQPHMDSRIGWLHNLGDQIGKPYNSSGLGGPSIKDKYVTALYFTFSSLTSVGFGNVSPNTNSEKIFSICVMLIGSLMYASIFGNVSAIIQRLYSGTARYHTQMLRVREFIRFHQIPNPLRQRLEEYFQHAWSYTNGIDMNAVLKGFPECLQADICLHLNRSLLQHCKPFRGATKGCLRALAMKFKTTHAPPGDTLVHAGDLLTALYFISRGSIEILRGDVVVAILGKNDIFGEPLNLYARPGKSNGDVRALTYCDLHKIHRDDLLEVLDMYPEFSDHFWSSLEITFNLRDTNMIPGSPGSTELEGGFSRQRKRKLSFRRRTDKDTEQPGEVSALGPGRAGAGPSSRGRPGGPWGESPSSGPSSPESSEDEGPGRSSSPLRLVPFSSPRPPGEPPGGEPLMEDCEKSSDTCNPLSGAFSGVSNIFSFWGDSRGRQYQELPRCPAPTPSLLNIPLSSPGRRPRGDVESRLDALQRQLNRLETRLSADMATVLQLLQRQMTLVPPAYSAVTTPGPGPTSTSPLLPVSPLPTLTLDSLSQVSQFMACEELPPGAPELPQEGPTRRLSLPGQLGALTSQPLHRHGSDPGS

With `C#Cc1ccc(-c2nnc(N[C@@H]3CCCN(CCO)C3)cc2C2CC2)c(O)c1` [Compound 45, (R)-2-(4-Cyclopropyl-6-((1-(2-hydroxyethyl)piperidin-3-yl)amino)pyridazin-3-yl)-5-ethynylphenol], in data set [1], the microsomal CLint (commonly the rate of metabolic loss divided by the concentration) at 1 μM is 1.4 µL/min/mg and the half-life at 1 μM was found to be 16.5 h. Moreover, in data set [2], the microsomal CLint at 1 μM was 6.8 µL/min/mg and the half-life at 1 μM was 3.4 h.

Regarding `C#Cc1ccc(-c2nnc(N[C@@H]3CCCN(C)C3)c(C#N)c2C)c(O)c1` [Compound 103, (R)-6-(4-ethynyl-2-hydroxyphenyl)-5-methyl-3-((1-methylpiperidin-3-yl)amino)pyridazine-4-carbonitrile], in data set [1], the microsomal CLint at 1 μM was 8.4 µL/min/mg and the half-life at 1 μM was 2.75 h. The IC50 (as a rule, the concentration that gives 50% inhibition) in data set [3] is over 10 µM. Further, in data set [2], the microsomal CLint at 1 μM is 8.2 µL/min/mg and the half-life at 1 μM worked out at 2.82 h.

Take `C#Cc1ccc(-c2nnc(N[C@@H]3CCCN(C)C3)cc2C(C)C)c(O)c1` [Compound 81, (R)-5-ethynyl-2-(4-isopropyl-6-((1-methylpiperidin-3-yl)amino)pyridazin-3-yl)phenol]: in data set [1], the microsomal CLint at 1 μM worked out at 5 µL/min/mg and the half-life at 1 μM was 4.62 h. Further, the IC50 in data set [3] is over 10 µM. Moreover, in data set [2], the microsomal CLint at 1 μM was determined as 3 µL/min/mg and the half-life at 1 μM is 7.7 h.

Take `C#Cc1ccc(-c2nnc(N[C@@H]3CCCN(C)C3)c(=O)n2C)c(O)c1` [Compound 23, (R)-3-(4-ethynyl-2-hydoxyphenyl)-4-methyl-6-((1-methylpiperidin-3-yl)amino)-1,2,4-triazin-5(4H)-one]: the “Canine t1/2” value in data set [1] is reported as “→∞”. The IC50 in data set [3] is over 10 µM. For the same compound, the “Rat t1/2” value in data set [2] was “→∞”.
